From patent US11446287B2, “Compounds and methods for EP300 or CBP modulation and indications therefor” (Opna Immuno-Oncology SA, priority 2019, dated 2022) come the findings set out here.

This experiment deals with T1, Recombinant human BRD4 containing dual bromodomains (BRD4-BD12 (1-477)) (Homo sapiens, UniProt O60885).
T1 construct: Recombinant human BRD4 containing dual bromodomains (BRD4-BD12 (1-477)); made in house; host or cells: E. coli BL21-CodonPlus (DE3), modified pET vector
Briefly: BRD4 Alphascreen binding assay. In short, it runs like this:
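His-tagged human BRD4 tandem bromodomains (1-477, E. coli) incubated 1 h at room temperature with biotinylated tetra-acetylated H4 (1-21) peptide and compound in HEPES pH 7.5 buffer with 2 mM DTT. AlphaScreen signal read 30 min after adding beads (7.5 μg/ml); IC50 from four-parameter fit after normalization to controls.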
On the technique in general: Bead proximity is the source of the signal in Alpha formats.

For `Cc1noc(C)c1-c1cnc2c(c1)c(-c1ccc(C(=O)O)cc1)cn2[C@@H](C)c1ccccn1` [P-0001, (S)-4-(5-(3,5-dimethylisoxazol-4-yl)-1-(1-(pyridin-2-yl)ethyl)-1H-pyrrolo[2,3-b]pyridin-3-yl)benzoic acid], the IC50 is 8 to 1000 µM.
Then `Cc1noc(C)c1-c1cnc2c(c1)c(-c1ccc(C(=O)O)cc1)cn2C(c1ccccn1)C1CCCC1` (stereo not drawn) [P-0002, 4-(1-(cyclopentyl(pyridin-2-yl)methyl)-5-(3,5-dimethylisoxazol-4-yl)-1H-pyrrolo[2,3-b]pyridin-3-yl)benzoic acid], with 0.0001 to 1 µM.
Then `Cc1noc(C)c1-c1cnc2c(c1)c(-c1ccccc1)cn2C(c1ccccn1)C1CCCC1` (stereo not drawn) [P-0003, 4-(1-(cyclopentyl(pyridin-2-yl)methyl)-3-phenyl-1H-pyrrolo[2,3-b]pyridin-5-yl)-3,5-dimethylisoxazole], with 8 to 1000 µM; and `Cc1noc(C)c1-c1cnc2c(c1)c(-c1ccc(C(=O)O)cc1)cn2C(c1ccccn1)C1CCCCC1` (stereo not drawn) [P-0004, 4-(1-(cyclohexyl(pyridin-2-yl)methyl)-5-(3,5-dimethylisoxazol-4-yl)-1H-pyrrolo[2,3-b]pyridin-3-yl)benzoic acid], with 8 to 1000 µM; and `COC(=O)c1ccc(-c2cn(S(=O)(=O)c3ccc(C)cc3)c3ncc(-c4c(C)noc4C)cc23)cc1` [P-0005, methyl 4-(5-(3,5-dimethylisoxazol-4-yl)-1-tosyl-1H-pyrrolo[2,3-b]pyridin-3-yl)benzoate], with 8 to 1000 µM.
With `Cc1noc(C)c1-c1cnc2c(c1)c(-c1ccnc(C(=O)O)c1)cn2S(=O)(=O)c1ccccc1` [P-0055, 4-(5-(3,5-dimethylisoxazol-4-yl)-1-(phenylsulfonyl)-1H-pyrrolo[2,3-b]pyridin-3-yl)picolinic acid], the concentration for half-maximal inhibition (IC50) was in the range of 0.0001 to 1 µM.
Consider `COc1cccc(Cn2cc(-c3cccc(C(=O)O)c3)c3cc(-c4c(C)noc4C)cnc32)c1` [P-0056, 3-(5-(3,5-dimethylisoxazol-4-yl)-1-(3-methoxybenzyl)-1H-pyrrolo[2,3-]pyridin-3-yl)benzoic acid], for which the IC50 lay within 1 to 8 µM.
The result for `COc1cccc(Cn2cc(-c3ccnc(C(=O)O)c3)c3cc(-c4c(C)noc4C)cnc32)c1` [P-0057, 4-(5-(3,5-dimethylisoxazol-4-yl)-1-(3-methoxybenzyl)-1H-pyrrolo[2,3-b]pyridin-3-yl)picolinic acid] reads 1 to 8 µM.
As to `Cc1noc(C)c1-c1cnc2c(c1)c(-c1cccc(C(=O)O)c1)cn2C(C1CC1)C1CC1` [P-0058, 3-(1-(dicyclopropylmethyl)-5-(3,5-dimethylisoxazol-4-yl)-1H-pyrrolo[2,3-b]pyridin-3-yl)benzoic acid], the IC50 lay in the range of 8 to 1000 µM.
In the case of `Cc1noc(C)c1-c1cnc2c(c1)c(-c1cccc(C(=O)O)c1)cn2Cc1cccc(OC(F)(F)F)c1` [P-0059, 3-(5-(3,5-dimethylisoxazol-4-yl)-1-(3-(trifluoromethoxy)benzyl)-1H-pyrrolo[2,3-b]pyridin-3-yl)benzoic acid], the IC50 lay within 8 to 1000 µM.
Then `Cc1noc(C)c1-c1cnc2c(c1)c(-c1cccc(C(=O)O)c1)cn2Cc1cccc(F)c1` [P-0060, 3-(5-(3,5-dimethylisoxazol-4-yl)-1-(3-fluorobenzyl)-1H-pyrrolo[2,3-b]pyridin-3-yl)benzoic acid], with 1 to 8 µM; and `Cc1noc(C)c1-c1cnc2c(c1)c(-c1cccc(C(=O)O)c1)cn2Cc1cccc(Cl)c1` [P-0061, 3-(1-(3-chlorobenzyl)-5-(3,5-dimethylisoxazol-4-yl)-1H-pyrrolo[2,3-b]pyridin-3-yl)benzoic acid], with 8 to 1000 µM.
The result for `Cc1cccc(Cn2cc(-c3cccc(C(=O)O)c3)c3cc(-c4c(C)noc4C)cnc32)c1` [P-0062, 3-(5-(3,5-dimethylisoxazol-4-yl)-1-(3-methylbenzyl)-1H-pyrrolo[2,3-b]pyridin-3-yl)benzoic acid] reads 8 to 1000 µM.
Then `Cc1noc(C)c1-c1cnc2c(c1)c(-c1cccc(C(=O)O)c1)cn2Cc1cccc(C(F)(F)F)c1` [P-0063, 3-(5-(3,5-dimethylisoxazol-4-yl)-1-(3-(trifluoromethyl)benzyl)-1H-pyrrolo[2,3-b]pyridin-3-yl)benzoic acid], with 8 to 1000 µM; and `Cc1noc(C)c1-c1cnc2c(CC3CCC3)cn(-c3ccc(C(=O)O)cc3OC(F)F)c2c1` [P-0064, 4-(3-(cyclobutylmethyl)-6-(3,5-dimethylisoxazol-4-yl)-1H-pyrrolo[3,2-b]pyridin-1-yl)-3-(difluoromethoxy)benzoic acid], with 1 to 8 µM; and `Cc1noc(C)c1-c1cnc2c(CC3CC3)cn(-c3ccnc(C(=O)O)c3)c2c1` [P-0065, 4-(3-(cyclopropylmethyl)-6-(3,5-dimethylisoxazol-4-yl)-1H-pyrrolo[3,2-b]pyridin-1-yl)picolinic acid], with 1 to 8 µM.
For the molecule `Cc1noc(C)c1-c1cnc2c(CC3CCC3)cn(-c3ccc(C(=O)O)cc3OC(F)(F)F)c2c1` [P-0066, 4-(3-(cyclobutylmethyl)-6-(3,5-dimethylisoxazol-4-yl)-1H-pyrrolo[3,2-b]pyridin-1-yl)-3-(trifluoromethoxy)benzoic acid], the IC50 is 8 to 1000 µM.
Then `COc1cc(C(=O)O)cc(OC)c1-n1cc(CC2CCC2)c2ncc(-c3c(C)noc3C)cc21` [P-0067, 4-(3-(cyclobutylmethyl)-6-(3,5-dimethylisoxazol-4-yl)-1H-pyrrolo[3,2-b]pyridin-1-yl)-3,5-dimethoxybenzoic acid], with 1 to 8 µM; and `Cc1noc(C)c1-c1cnc2c(CC3CCC3)cn(-c3ccc(S(C)(=O)=O)c(F)c3)c2c1` [P-0068, 4-(3-(cyclobutylmethyl)-1-(3-fluoro-4-(methylsulfonyl)phenyl)-1H-pyrrolo[3,2-b]pyridin-6-yl)-3,5-dimethylisoxazole], with 8 to 1000 µM; and `Cc1noc(C)c1-c1cnc2c(c1)c(C#CC(=O)O)cn2Cc1ccccc1` [P-0069, 3-(1-benzyl-5-(3,5-dimethylisoxazol-4-yl)-1H-pyrrolo[2,3-b]pyridin-3-yl)propiolic acid], with 8 to 1000 µM.
As to `Cc1noc(C)c1-c1cnc2c(c1)c(-c1ccc(C(=O)O)cc1OC(F)(F)F)cn2[C@@H](C)c1ccccn1` [P-0070, (S)-4-(5-(3,5-dimethylisoxazol-4-yl)-1-(1-(pyridin-2-yl)ethyl)-1H-pyrrolo[2,3-b]pyridin-3-yl)-3-(trifluoromethoxy)benzoic acid], the IC50 fell in the range of 8 to 1000 µM.
The result for `Cc1noc(C)c1-c1cnc2c(c1)c(-c1ccc(C(=O)O)cc1OC(F)F)cn2[C@@H](C)c1ccccn1` [P-0071, (S)-3-(difluoromethoxy)-4-(5-(3,5-dimethylisoxazol-4-yl)-1-(1-(pyridin-2-yl)ethyl)-1H-pyrrolo[2,3-b]pyridin-3-yl)benzoic acid] reads 1 to 8 µM; that for `Cc1noc(C)c1-c1cnc2c(c1)c(-c1cccc(C(=O)O)c1)cn2C(C1CCC1)C1CCC1` [P-0072, 3-(1-(dicyclobutylmethyl)-5-(3,5-dimethylisoxazol-4-yl)-1H-pyrrolo[2,3-b]pyridin-3-yl)benzoic acid], 1 to 8 µM.
Take `Cc1noc(C)c1-c1cnc2c(c1)c(-c1cccc(C(=O)O)c1)cn2C(c1ccccn1)C1CCC1` (stereo not drawn) [P-0073, 3-(1-(cyclobutyl(pyridin-2-yl)methyl)-5-(3,5-dimethylisoxazol-4-yl)-1H-pyrrolo[2,3-b]pyridin-3-yl)benzoic acid]: the IC50 lay within 8 to 1000 µM.
The result for `Cc1noc(C)c1-c1cnc2c(CC3CCC3)cn(-c3c(Cl)cc(C(=O)O)cc3Cl)c2c1` [P-0074, 3,5-dichloro-4-(3-(cyclobutylmethyl)-6-(3,5-dimethylisoxazol-4-yl)-1H-pyrrolo[3,2-b]pyridin-1-yl)benzoic acid] reads 8 to 1000 µM; that for `Cc1cc(C(=O)O)cnc1-n1cc(CC2CCC2)c2ncc(-c3c(C)noc3C)cc21` [P-0075, 6-(3-(cyclobutylmethyl)-6-(3,5-dimethylisoxazol-4-yl)-1H-pyrrolo[3,2-b]pyridin-1-yl)-5-methylnicotinic acid], 8 to 1000 µM.
Then `Cc1noc(C)c1-c1cnc2c(CC3CCC3)cn(-c3ccc(C#N)cc3)c2c1` [P-0076, 4-(3-(cyclobutylmethyl)-6-(3,5-dimethylisoxazol-4-yl)-1H-pyrrolo[3,2-b]pyridin-1-yl)benzonitrile], with 8 to 1000 µM.
`Cc1noc(C)c1-c1cnc2c(CC3CCC3)cn(-c3ccnc(C#N)c3)c2c1` [P-0077, 4-(3-(cyclobutylmethyl)-6-(3,5-dimethylisoxazol-4-yl)-1H-pyrrolo[3,2-b]pyridin-1-yl)picolinonitrile]: the IC50 lay in the range of 1 to 8 µM.
The result for `Cc1noc(C)c1-c1cnc2c(c1)c(-c1cccc(C(=O)NC#N)c1)cn2Cc1ccccc1` [P-0078, 3-(1-benzyl-5-(3,5-dimethylisoxazol-4-yl)-1H-pyrrolo[2,3-b]pyridin-3-yl)-N-cyanobenzamide] reads 1 to 8 µM; that for `Cc1noc(C)c1-c1cnc2c(c1)c(-c1cccc(C(=O)NO)c1)cn2Cc1ccccc1` [P-0079, 3-(1-benzyl-5-(3,5-dimethylisoxazol-4-yl)-1H-pyrrolo[2,3-b]pyridin-3-yl)-N-hydroxybenzamide], 1 to 8 µM.
The result for `Cc1noc(C)c1-c1cnc2c(c1)c(-c1ccc(C(=O)O)cc1)cn2C(C)c1ccccn1` (stereo not drawn) [P-0080, 4-(5-(3,5-dimethylisoxazol-4-yl)-1-(1-(pyridin-2-yl)ethyl)-1H-pyrrolo[2,3-b]pyridin-3-yl)benzoic acid] reads 1 to 8 µM; that for `Cc1noc(C)c1-c1cnc2c(c1)c(-c1cccc(S(N)(=O)=O)c1)cn2Cc1ccccc1` [P-0081, 3-(1-benzyl-5-(3,5-dimethylisoxazol-4-yl)-1H-pyrrolo[2,3-b]pyridin-3-yl)benzenesulfonamide], 1 to 8 µM.
Turning to `CNS(=O)(=O)c1cccc(-c2cn(Cc3ccccc3)c3ncc(-c4c(C)noc4C)cc23)c1` [P-0082, 3-(1-benzyl-5-(3,5-dimethylisoxazol-4-yl)-1H-pyrrolo[2,3-b]pyridin-3-yl)-N-methylbenzenesulfonamide], the IC50 lay within 1 to 8 µM.

For orientation: IC50 means the concentration at which inhibition is half-maximal.
